In publication PMC9186362, “Design and biological evaluation of substituted 5,7-dihydro-6H-indolo[2,3-c]quinolin-6-one as novel selective Haspin inhibitors” (Journal of Enzyme Inhibition and Medicinal Chemistry, 2022):

Key:
MAPK9 (JNK2) = molecular target: T1, MAPK9 (JNK2) (Homo sapiens, UniProt P45984); assay: SelectScreen ZLYTE; assay type: biochemical; conditions: ATP 100 µM, read-out: Percentage of inhibition
T1 construct: purchased Life Technologies (SelectScreen service)
Method: (§1) We further evaluated the selectivity profile of compound 55 on a larger panel of kinases (SelectScreen Whole Panel, Life Technologies). The inhibition profile of 55, evaluated at 1 μM, is depicted on a dendrogram on Figure 3 where kinases inhibited by a minimum of 80% are shown. A full list of the kinases tested is shown on Table S1 in supplementary information.

CLK1 = molecular target: T2, CLK1 (Homo sapiens, UniProt P49759); assay: SelectScreen ZLYTE; assay type: biochemical; conditions: ATP Km, read-out: Percentage of inhibition
T2 construct: purchased Life Technologies (SelectScreen Whole Panel)
Method: as §1

PDK1 Direct = molecular target: T3, PDK1 Direct (Homo sapiens, UniProt O15530); assay: SelectScreen ZLYTE; assay type: biochemical; conditions: ATP Km, read-out: Percentage of inhibition
T3 construct: purchased Life Technologies (SelectScreen Whole Panel service)
Method: as §1

IGF1R = IGF1R (Homo sapiens, UniProt P08069); assay: SelectScreen ZLYTE; assay type: biochemical; conditions: ATP Km, read-out: Percentage of inhibition
Method: as §1

MAP2K6 (MKK6) = molecular target: T4, MAP2K6 (MKK6) (Homo sapiens, UniProt P52564); assay: SelectScreen ZLYTE; assay type: biochemical; conditions: ATP 100 µM, read-out: Percentage of inhibition
T4 construct: purchased Life Technologies (SelectScreen Whole Panel service)
Method: as §1

FGFR3 = molecular target: T5, FGFR3 (Homo sapiens, UniProt P22607); assay: SelectScreen ZLYTE; assay type: biochemical; conditions: ATP Km, read-out: Percentage of inhibition
T5 construct: purchased Life Technologies
Method: as §1

DCAMKL2 (DCK2) = DCAMKL2 (DCK2) (Homo sapiens, UniProt Q8N568); assay: SelectScreen ZLYTE; assay type: biochemical; conditions: ATP Km, read-out: Percentage of inhibition
Method: as §1

DAPK3 (ZIPK) = molecular target: T6, DAPK3 (ZIPK) (Homo sapiens, UniProt O43293); assay: SelectScreen ZLYTE; assay type: biochemical; conditions: ATP Km, read-out: Percentage of inhibition
T6 construct: purchased Life Technologies (SelectScreen Whole Panel service)
Method: as §1

PIM1 = molecular target: T7, PIM1 (Homo sapiens, UniProt P11309); assay: SelectScreen ZLYTE; assay type: biochemical; conditions: ATP Km, read-out: Percentage of inhibition
T7 construct: purchased Life Technologies (SelectScreen service)
Method: as §1

RET S891A = molecular target: T8, RET S891A (Homo sapiens, UniProt P07949, S891A); assay: SelectScreen ZLYTE; assay type: biochemical; conditions: ATP Km, read-out: Percentage of inhibition
T8 construct: purchased Life Technologies
Method: as §1

PTK2B (FAK2) = molecular target: T9, PTK2B (FAK2) (Homo sapiens, UniProt Q14289); assay: SelectScreen ZLYTE; assay type: biochemical; conditions: ATP Km, read-out: Percentage of inhibition
T9 construct: purchased Life Technologies (SelectScreen Whole Panel service)
Method: as §1

RPS6KB2 (p70S6Kb) = molecular target: T10, RPS6KB2 (p70S6Kb) (Homo sapiens, UniProt Q9UBS0); assay: SelectScreen ZLYTE; assay type: biochemical; conditions: ATP Km, read-out: Percentage of inhibition
T10 construct: purchased Life Technologies (SelectScreen)
Method: as §1

MATK (HYL) = molecular target: T11, MATK (HYL) (Homo sapiens, UniProt P42679); assay: SelectScreen ZLYTE; assay type: biochemical; conditions: ATP Km, read-out: Percentage of inhibition
T11 construct: purchased Life Technologies (SelectScreen Whole Panel service)
Method: as §1

EPHA5 = molecular target: T12, EPHA5 (Homo sapiens, UniProt P54756); assay: SelectScreen ZLYTE; assay type: biochemical; conditions: ATP Km, read-out: Percentage of inhibition
T12 construct: purchased Life Technologies (SelectScreen Whole Panel service)
Method: as §1

MAPKAPK3 = molecular target: T13, MAPKAPK3 (Homo sapiens, UniProt Q16644); assay: SelectScreen ZLYTE; assay type: biochemical; conditions: ATP Km, read-out: Percentage of inhibition
T13 construct: purchased Life Technologies
Method: as §1

PRKCB1 (PKC beta I) = molecular target: T14, PRKCB1 (PKC beta I) (Homo sapiens, UniProt P05771); assay: SelectScreen ZLYTE; assay type: biochemical; conditions: ATP Km, read-out: Percentage of inhibition
T14 construct: purchased Life Technologies (SelectScreen)
Method: as §1

CDC42 BPA (MRCKA) = CDC42 BPA (MRCKA) (Homo sapiens, UniProt Q5VT25); assay: SelectScreen ZLYTE; assay type: biochemical; conditions: ATP Km, read-out: Percentage of inhibition
Method: as §1

JAK2 JH1 JH2 V617F = molecular target: T15, JAK2 JH1 JH2 V617F (Homo sapiens, UniProt O60674, V617F); assay: SelectScreen ZLYTE; assay type: biochemical; conditions: ATP Km, read-out: Percentage of inhibition
T15 construct: JAK2 JH1 JH2; purchased Life Technologies
Method: as §1

MAPK12 (p38 gamma) = MAPK12 (p38 gamma) (Homo sapiens, UniProt P53778); assay: SelectScreen ZLYTE; assay type: biochemical; conditions: ATP Km, read-out: Percentage of inhibition
Method: as §1

GRK5 = molecular target: T16, GRK5 (Homo sapiens, UniProt P34947); assay: SelectScreen ZLYTE; assay type: biochemical; conditions: ATP Km, read-out: Percentage of inhibition
T16 construct: purchased Life Technologies (SelectScreen Whole Panel service)
Method: as §1

DYRK1A = molecular target: T17, DYRK1A (Homo sapiens, UniProt Q13627); assay: SelectScreen ZLYTE; assay type: biochemical; conditions: ATP Km, read-out: Percentage of inhibition
T17 construct: purchased Life Technologies
Method: as §1

PDK1 = PDK1 (Homo sapiens, UniProt O15530); assay: SelectScreen ZLYTE; assay type: biochemical; conditions: ATP 100 µM, read-out: Percentage of inhibition
Method: as §1

PEAK1 = molecular target: T18, PEAK1 (Homo sapiens, UniProt Q9H792); assay: SelectScreen ZLYTE; assay type: biochemical; conditions: ATP Km, read-out: Percentage of inhibition
T18 construct: purchased Life Technologies (SelectScreen Whole Panel)
Method: as §1

LTK (TYK1) = molecular target: T19, LTK (TYK1) (Homo sapiens, UniProt P29376); assay: SelectScreen ZLYTE; assay type: biochemical; conditions: ATP Km, read-out: Percentage of inhibition
T19 construct: purchased Life Technologies (SelectScreen Whole Panel service)
Method: as §1

PDGFRA D842V = molecular target: T20, PDGFRA D842V (Homo sapiens, UniProt P16234, D842V); assay: SelectScreen ZLYTE; assay type: biochemical; conditions: ATP Km, read-out: Percentage of inhibition
T20 construct: purchased Life Technologies (SelectScreen Whole Panel service)
Method: as §1

EGFR (ErbB1) G719C = molecular target: T21, EGFR (ErbB1) G719C (Homo sapiens, UniProt P00533, G719C); assay: SelectScreen ZLYTE; assay type: biochemical; conditions: ATP Km, read-out: Percentage of inhibition
T21 construct: purchased Life Technologies (SelectScreen)
Method: as §1

MST4 = MST4 (Homo sapiens, UniProt Q9P289); assay: SelectScreen ZLYTE; assay type: biochemical; conditions: ATP Km, read-out: Percentage of inhibition
Method: as §1

NEK2 = molecular target: T22, NEK2 (Homo sapiens, UniProt P51955); assay: SelectScreen ZLYTE; assay type: biochemical; conditions: ATP Km, read-out: Percentage of inhibition
T22 construct: purchased Life Technologies (SelectScreen Whole Panel)
Method: as §1

JAK1 = molecular target: T23, JAK1 (Homo sapiens, UniProt P23458); assay: SelectScreen ZLYTE; assay type: biochemical; conditions: ATP Km, read-out: Percentage of inhibition
T23 construct: purchased Life Technologies (SelectScreen service)
Method: as §1

PRKACA (PKA) = molecular target: T24, PRKACA (PKA) (Homo sapiens, UniProt P17612); assay: SelectScreen ZLYTE; assay type: biochemical; conditions: ATP Km, read-out: Percentage of inhibition
T24 construct: purchased Life Technologies (SelectScreen)
Method: as §1

RPS6KA4 (MSK2) = molecular target: T25, RPS6KA4 (MSK2) (Homo sapiens, UniProt O75676); assay: SelectScreen ZLYTE; assay type: biochemical; conditions: ATP Km, read-out: Percentage of inhibition
T25 construct: purchased Life Technologies
Method: as §1

MAPKAPK5 (PRAK) = MAPKAPK5 (PRAK) (Homo sapiens, UniProt Q8IW41); assay: SelectScreen ZLYTE; assay type: biochemical; conditions: ATP Km, read-out: Percentage of inhibition
Method: as §1

ACVR1B (ALK4) = molecular target: T26, ACVR1B (ALK4) (Homo sapiens, UniProt P36896); assay: SelectScreen ZLYTE; assay type: biochemical; conditions: ATP Km, read-out: Percentage of inhibition
T26 construct: purchased Life Technologies (SelectScreen Whole Panel)
Method: as §1

FYN = molecular target: T27, FYN (Homo sapiens, UniProt P06241); assay: SelectScreen ZLYTE; assay type: biochemical; conditions: ATP Km, read-out: Percentage of inhibition
T27 construct: purchased Life Technologies (SelectScreen Whole Panel)
Method: as §1

FER = FER (Homo sapiens, UniProt P16591); assay: SelectScreen ZLYTE; assay type: biochemical; conditions: ATP Km, read-out: Percentage of inhibition
Method: as §1

MAPK15 (ERK7) = MAPK15 (ERK7) (Homo sapiens, UniProt Q8TD08); assay: LanthaScreen Binding - Eu-anti-His; conditions: read-out: Percentage of inhibition
Method: as §1

BMPR2 = molecular target: T28, BMPR2 (Homo sapiens, UniProt Q13873); assay: LanthaScreen Binding - Eu-anti-His; conditions: read-out: Percentage of inhibition
T28 construct: purchased Life Technologies (SelectScreen Whole Panel)
Method: as §1

CAMKK1 (CAMKKA) = molecular target: T29, CAMKK1 (CAMKKA) (Homo sapiens, UniProt Q8N5S9); assay: LanthaScreen Binding - Eu-anti-His; conditions: read-out: Percentage of inhibition
T29 construct: purchased Life Technologies (SelectScreen)
Method: as §1

T7 sequence (P11309 whole entry): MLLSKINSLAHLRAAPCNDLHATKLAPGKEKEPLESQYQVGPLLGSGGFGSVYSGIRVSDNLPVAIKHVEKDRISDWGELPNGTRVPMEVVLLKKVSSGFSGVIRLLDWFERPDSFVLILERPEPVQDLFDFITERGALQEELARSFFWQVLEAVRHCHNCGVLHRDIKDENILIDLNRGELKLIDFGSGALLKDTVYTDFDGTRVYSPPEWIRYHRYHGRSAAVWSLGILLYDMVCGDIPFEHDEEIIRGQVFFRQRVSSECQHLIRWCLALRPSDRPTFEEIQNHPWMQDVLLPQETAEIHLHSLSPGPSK
Chain of CDC42 BPA (MRCKA) (Q5VT25 whole entry): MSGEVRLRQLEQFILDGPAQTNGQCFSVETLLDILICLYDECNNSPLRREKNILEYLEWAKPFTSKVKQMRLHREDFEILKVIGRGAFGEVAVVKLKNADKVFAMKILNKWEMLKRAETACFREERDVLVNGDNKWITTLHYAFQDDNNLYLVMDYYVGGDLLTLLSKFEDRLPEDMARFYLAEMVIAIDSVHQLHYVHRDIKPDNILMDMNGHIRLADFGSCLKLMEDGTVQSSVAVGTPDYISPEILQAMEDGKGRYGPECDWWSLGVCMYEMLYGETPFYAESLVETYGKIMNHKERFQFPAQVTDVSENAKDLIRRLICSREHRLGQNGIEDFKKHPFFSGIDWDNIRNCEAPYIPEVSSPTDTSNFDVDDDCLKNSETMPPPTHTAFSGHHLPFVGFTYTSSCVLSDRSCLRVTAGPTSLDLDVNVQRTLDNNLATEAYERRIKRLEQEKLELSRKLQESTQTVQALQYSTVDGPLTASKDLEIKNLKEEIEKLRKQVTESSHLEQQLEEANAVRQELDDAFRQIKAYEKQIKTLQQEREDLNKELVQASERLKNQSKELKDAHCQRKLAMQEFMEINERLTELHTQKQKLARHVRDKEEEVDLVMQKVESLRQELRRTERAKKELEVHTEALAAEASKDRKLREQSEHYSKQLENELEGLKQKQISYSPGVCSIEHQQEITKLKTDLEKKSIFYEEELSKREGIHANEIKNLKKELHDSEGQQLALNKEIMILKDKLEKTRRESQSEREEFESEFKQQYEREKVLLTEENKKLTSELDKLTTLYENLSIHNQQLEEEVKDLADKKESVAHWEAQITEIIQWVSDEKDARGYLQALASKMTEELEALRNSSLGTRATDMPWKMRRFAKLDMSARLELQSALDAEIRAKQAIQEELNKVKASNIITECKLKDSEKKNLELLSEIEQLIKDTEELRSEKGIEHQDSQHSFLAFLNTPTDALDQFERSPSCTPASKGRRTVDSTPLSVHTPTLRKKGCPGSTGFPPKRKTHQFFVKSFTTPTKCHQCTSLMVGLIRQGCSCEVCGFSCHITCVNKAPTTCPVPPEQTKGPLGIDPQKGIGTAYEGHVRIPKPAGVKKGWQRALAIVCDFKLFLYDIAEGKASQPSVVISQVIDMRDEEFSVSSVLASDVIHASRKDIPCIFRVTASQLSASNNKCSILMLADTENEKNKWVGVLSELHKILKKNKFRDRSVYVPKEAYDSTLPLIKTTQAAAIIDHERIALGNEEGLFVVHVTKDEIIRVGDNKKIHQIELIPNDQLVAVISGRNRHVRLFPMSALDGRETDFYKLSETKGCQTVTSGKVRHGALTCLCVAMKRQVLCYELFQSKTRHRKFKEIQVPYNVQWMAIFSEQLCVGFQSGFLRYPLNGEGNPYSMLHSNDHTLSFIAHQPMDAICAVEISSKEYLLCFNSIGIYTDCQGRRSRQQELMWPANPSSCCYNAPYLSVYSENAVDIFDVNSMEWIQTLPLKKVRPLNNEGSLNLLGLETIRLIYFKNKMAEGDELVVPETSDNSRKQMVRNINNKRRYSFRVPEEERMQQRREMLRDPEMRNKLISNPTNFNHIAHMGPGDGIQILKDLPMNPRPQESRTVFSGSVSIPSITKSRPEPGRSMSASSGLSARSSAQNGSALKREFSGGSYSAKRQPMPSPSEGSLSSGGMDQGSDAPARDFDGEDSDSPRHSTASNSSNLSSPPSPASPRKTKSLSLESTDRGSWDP
T20 sequence (P16234 24-1089 D842V): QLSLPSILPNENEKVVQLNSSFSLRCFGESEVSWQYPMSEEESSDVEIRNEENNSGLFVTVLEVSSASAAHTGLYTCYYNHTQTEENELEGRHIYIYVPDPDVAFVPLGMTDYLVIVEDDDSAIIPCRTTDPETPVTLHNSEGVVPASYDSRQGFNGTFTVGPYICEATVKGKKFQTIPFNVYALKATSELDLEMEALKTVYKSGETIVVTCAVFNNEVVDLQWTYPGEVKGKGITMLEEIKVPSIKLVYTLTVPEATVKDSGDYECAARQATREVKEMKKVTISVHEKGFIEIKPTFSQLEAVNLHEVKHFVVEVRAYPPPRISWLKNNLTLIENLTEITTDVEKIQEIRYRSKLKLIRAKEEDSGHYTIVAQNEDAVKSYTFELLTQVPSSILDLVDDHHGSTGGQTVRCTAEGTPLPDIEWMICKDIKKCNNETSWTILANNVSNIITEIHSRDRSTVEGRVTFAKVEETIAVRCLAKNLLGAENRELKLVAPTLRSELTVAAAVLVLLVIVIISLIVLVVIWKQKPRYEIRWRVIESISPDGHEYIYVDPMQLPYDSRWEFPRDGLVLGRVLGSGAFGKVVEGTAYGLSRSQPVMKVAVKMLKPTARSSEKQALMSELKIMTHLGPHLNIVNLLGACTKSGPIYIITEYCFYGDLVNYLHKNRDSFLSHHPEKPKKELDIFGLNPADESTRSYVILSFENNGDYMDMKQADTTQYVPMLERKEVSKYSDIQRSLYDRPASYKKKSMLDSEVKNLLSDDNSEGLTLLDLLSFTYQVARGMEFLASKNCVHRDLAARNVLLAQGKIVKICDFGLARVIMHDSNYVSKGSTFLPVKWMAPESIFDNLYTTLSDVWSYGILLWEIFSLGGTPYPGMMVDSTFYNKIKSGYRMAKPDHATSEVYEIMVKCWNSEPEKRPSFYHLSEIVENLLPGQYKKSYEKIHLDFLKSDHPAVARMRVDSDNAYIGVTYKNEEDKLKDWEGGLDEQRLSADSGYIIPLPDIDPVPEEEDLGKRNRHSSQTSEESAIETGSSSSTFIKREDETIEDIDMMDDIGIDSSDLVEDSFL
T8 sequence (P07949 29-1114 S891A): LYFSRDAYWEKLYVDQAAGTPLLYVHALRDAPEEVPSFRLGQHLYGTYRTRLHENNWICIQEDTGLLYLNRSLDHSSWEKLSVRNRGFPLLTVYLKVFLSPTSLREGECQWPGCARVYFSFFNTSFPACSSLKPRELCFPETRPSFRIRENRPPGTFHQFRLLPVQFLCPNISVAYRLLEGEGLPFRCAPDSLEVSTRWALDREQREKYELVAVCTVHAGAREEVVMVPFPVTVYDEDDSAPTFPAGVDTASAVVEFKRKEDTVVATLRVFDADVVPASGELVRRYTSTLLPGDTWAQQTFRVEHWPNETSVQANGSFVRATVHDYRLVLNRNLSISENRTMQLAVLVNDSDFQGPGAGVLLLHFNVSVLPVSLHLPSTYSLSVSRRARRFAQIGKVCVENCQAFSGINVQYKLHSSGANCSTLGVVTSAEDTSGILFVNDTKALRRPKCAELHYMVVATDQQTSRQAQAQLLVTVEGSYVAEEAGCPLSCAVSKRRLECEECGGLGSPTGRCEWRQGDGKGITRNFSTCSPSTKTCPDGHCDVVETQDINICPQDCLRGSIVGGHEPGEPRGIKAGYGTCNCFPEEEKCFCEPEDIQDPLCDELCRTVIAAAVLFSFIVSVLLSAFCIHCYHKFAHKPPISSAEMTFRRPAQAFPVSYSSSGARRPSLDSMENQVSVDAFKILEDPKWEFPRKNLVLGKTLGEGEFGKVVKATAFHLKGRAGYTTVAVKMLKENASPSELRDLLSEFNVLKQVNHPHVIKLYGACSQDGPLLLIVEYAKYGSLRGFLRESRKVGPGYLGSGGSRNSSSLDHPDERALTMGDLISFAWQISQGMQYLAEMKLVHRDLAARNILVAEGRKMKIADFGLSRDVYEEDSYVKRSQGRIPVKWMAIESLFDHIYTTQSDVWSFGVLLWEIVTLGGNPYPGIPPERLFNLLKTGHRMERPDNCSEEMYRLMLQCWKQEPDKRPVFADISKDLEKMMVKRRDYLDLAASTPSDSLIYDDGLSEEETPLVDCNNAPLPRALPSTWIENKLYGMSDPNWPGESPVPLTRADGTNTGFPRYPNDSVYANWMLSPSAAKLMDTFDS
T19 sequence (P29376 17-864): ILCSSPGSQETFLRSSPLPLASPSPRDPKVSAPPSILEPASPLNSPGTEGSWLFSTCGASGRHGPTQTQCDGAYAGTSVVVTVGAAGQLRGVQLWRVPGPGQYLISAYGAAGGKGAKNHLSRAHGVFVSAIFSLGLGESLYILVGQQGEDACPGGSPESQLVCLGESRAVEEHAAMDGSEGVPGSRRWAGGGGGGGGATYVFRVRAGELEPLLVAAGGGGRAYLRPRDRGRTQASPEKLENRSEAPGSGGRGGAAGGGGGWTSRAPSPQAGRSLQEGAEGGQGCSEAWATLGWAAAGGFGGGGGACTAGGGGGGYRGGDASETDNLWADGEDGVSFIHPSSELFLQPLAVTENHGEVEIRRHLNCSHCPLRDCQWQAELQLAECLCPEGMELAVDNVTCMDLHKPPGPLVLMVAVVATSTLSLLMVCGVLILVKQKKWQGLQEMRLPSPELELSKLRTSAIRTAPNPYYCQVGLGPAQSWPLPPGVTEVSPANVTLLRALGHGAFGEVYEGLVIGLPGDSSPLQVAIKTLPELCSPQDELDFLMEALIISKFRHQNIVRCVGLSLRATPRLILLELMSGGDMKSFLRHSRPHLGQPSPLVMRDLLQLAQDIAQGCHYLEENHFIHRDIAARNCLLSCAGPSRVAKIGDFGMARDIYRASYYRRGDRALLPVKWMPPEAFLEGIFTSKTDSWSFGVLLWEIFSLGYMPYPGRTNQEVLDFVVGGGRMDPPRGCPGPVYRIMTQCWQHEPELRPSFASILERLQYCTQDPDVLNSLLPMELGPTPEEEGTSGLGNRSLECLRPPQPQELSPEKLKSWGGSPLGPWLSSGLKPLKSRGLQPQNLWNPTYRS

## COc1ccc2[nH]c3c(=O)[nH]c4ccc(O)cc4c3c2c1 [Compound 55, 2-Hydroxy-10-methoxy-5,7-dihydro-6H-indolo[2,3-c]quinolin-6-one]
MAPK9 (JNK2)
  inhibition at 1 µM: 12%
CLK1
  inhibition at 1 µM: 98%
PDK1 Direct
  inhibition at 1 µM: 17%
IGF1R
  inhibition at 1 µM: 13%
MAP2K6 (MKK6)
  inhibition at 1 µM: 11%
FGFR3
  inhibition at 1 µM: 3%
DCAMKL2 (DCK2)
  inhibition at 1 µM: 6%
DAPK3 (ZIPK)
  inhibition at 1 µM: 44%
PIM1
  inhibition at 1 µM: 71%
RET S891A
  inhibition at 1 µM: 96%
PTK2B (FAK2)
  inhibition at 1 µM: 46%
RPS6KB2 (p70S6Kb)
  inhibition at 1 µM: 8%
MATK (HYL)
  inhibition at 1 µM: 11%
EPHA5
  inhibition at 1 µM: 18%
MAPKAPK3
  inhibition at 1 µM: 3%
PRKCB1 (PKC beta I)
  inhibition at 1 µM: 8%
CDC42 BPA (MRCKA)
  inhibition at 1 µM: 13%
JAK2 JH1 JH2 V617F
  inhibition at 1 µM: 36%
MAPK12 (p38 gamma)
  inhibition at 1 µM: 19%
GRK5
  inhibition at 1 µM: 18%
DYRK1A
  inhibition at 1 µM: 96%
PDK1
  inhibition at 1 µM: 15%
PEAK1
  inhibition at 1 µM: 50%
LTK (TYK1)
  inhibition at 1 µM: 16%
PDGFRA D842V
  inhibition at 1 µM: 49%
EGFR (ErbB1) G719C
  inhibition at 1 µM: 8%
MST4
  inhibition at 1 µM: 61%
NEK2
  inhibition at 1 µM: -11%
JAK1
  inhibition at 1 µM: 23%
PRKACA (PKA)
  inhibition at 1 µM: 8%
RPS6KA4 (MSK2)
  inhibition at 1 µM: 39%
MAPKAPK5 (PRAK)
  inhibition at 1 µM: 22%
ACVR1B (ALK4)
  inhibition at 1 µM: -13%
FYN
  inhibition at 1 µM: 49%
FER
  inhibition at 1 µM: 56%
MAPK15 (ERK7)
  inhibition at 1 µM: 58%
BMPR2
  inhibition at 1 µM: 116%
CAMKK1 (CAMKKA)
  inhibition at 1 µM: 8%
